Test results: patent US20220396818A1, “POLYNUCLEOTIDE SYNTHESIS METHOD, KIT AND SYSTEM” (Oxford Nanopore Technologies PLC, priority 2019, published 2022)

Assays:
[1] = test system: Therminator IX DNA polymerase; experiment: Incorporation of 3′-O-modified-dNTPs opposite complementary base by Therminator IX DNA polymerase, with helper strand (gel); type: biochemical, Thermococcus species 9° N
Protocol: • 1. 2 μl of 10× Thermopol® buffer (20 mM Tris-HCl, 10 mM (NH4)2SO4, 10 mM KCl, 2 mM MgSO4, 0.1% Triton® X-100, pH 8.8, New England BioLabs) was mixed with 12.25 μl of sterile deionized water (ELGA VEOLIA) in 1.5 ml Eppendorf tube. • 2. 0.5 μl of 10 μM primer (5 pmol, 1 equiv) (SEQ ID NO: 22, FIG. 23j) and 0.75 μl of 10 μM template-A/G/T/C ([…], 1.5 equiv) (SEQ ID NOS: 23 to 26, FIG. 23j) and 1 μl of 10 μM helper strand-T/C/A/G (10 pmol, 2 equiv) (SEQ ID NOS: 27 to 30, FIG. 23j) were added to the reaction mixture. • 3. 3′-O-modified-dTTP/dCTP/dATP/dGTP (2 μl of 100 μM) and MnCl2 (1 μl of 40 mM) were added. • 4. 1.5 μl of Therminator IX DNA polymerase (15 U, New England BioLabs) was then added. • 5. […] The reaction was stopped by addition of TBE-Urea sample buffer (Novex). • 7. The reaction was separated on polyacrylamide gel (15%) TBE buffer and visualized by ChemiDoc MP imaging system (BioRad).
• 1. 5 μl of reaction mixture was added to 5 μl of TBE-Urea sample buffer (Novex) in a sterile 1.5 ml Eppendorf tube and heated to 95° C. for 5 minutes using a heat ThermoMixer (Eppendorf). • 2. 5 μl of the sample were then loaded into the wells of a 15% TBE-Urea gel 1.0 mm×10 well (Invitrogen) which contained preheated 1×TBE buffer Thermo Scientific (89 mM Tris, 89 mM boric acid and 2 mM EDTA). • 3. […]

[2] = test system: Therminator X DNA polymerase; experiment: Incorporation of 3′-O-azidomethyl-dNTPs to the 3′ end of blunt-ended DNA by Therminator X DNA polymerase (gel); type: biochemical, Thermococcus species 9° N; conditions: presence of Mn2+ ions, 37° C.
Protocol: • 1. 5 μl of 10× Thermopol® buffer (20 mM Tris-HCl, 10 mM (NH4)2SO4, 10 mM KCl, 2 mM MgSO4, 0.1% Triton® X-100, pH 8.8, New England Biolabs) was mixed with 33.5 μl of sterile deionized water (ELGA VEOLIA) in a 1.5 ml Eppendorf tube. • 2. 2 μl of 20 μM primer (40 pmol, 1 equiv) (SEQ ID: NO: 68, FIG. 56a) and 3 μl of 20 μM template (60 pmol, 1.5 equiv) (SEQ ID: NO: 69, FIG. 56a) were added to the reaction mixture. • 3. 3′-O-modified-dTTP (2 μl of 100 μM) and MnCl2 (2.5 μl of 40 mM) were added. • 4. 2 μl of Therminator X DNA polymerase (20 U, New England BioLabs) was then added. • 5. The reaction was incubated for 30 minutes at 37° C. • 6. The reaction was stopped by addition of TBE-Urea sample buffer (Novex). • 7. The reaction was separated on polyacrylamide gel (15%) TBE buffer and visualized by ChemiDoc MP imaging system (BioRad).

DNA containing inosine [3] = experiment: Two-step cleavage of inosine-containing oligonucleotide with hAAG and base or Endo VIII (gel); type: biochemical
Protocol: A cleavage reaction on oligonucleotides was carried out using the procedure below: • 1. A pipette (Gilson) was used to transfer 41 μl sterile distilled water (ELGA VEOLIA) into a 1.5 ml Eppendorf tube. • 2. 50 of 10× ThermoPol® reaction buffer NEB (20 mM Tris-HCl, 10 mM (NH4)2SO4, 10 mM KCl, 2 mM MgSO4, 0.1% Triton® X-100, pH 8.8) were then added into the same Eppendorf tube. • 3. 10 each of oligonucleotides (FIG. 18e); template (SEQ ID NO: 3) or any fluorescently tagged long oligo strand, primer with T (SEQ ID NO: 4) and control (SEQ ID NO: 5) all at 5 pmols were added into the same tube. • 4. 10 of Human Alkyladenine DNA Glycosylase (hAAG) NEB (10 units/0) was added into the same tube. • 5. Reaction mixture was then gently mixed by resuspension with a pipette, centrifuged at 13,000 rpm for 5 seconds and incubated at 37° C. for 1 hour. • 6. Typically after incubation time had elapsed, the reaction was terminated by enzymatic heat inactivation (i.e. 65° C. for 20 minutes).
• 1. 2 μl (10-100 ng/0) DNA was added into a sterile 1.5 ml Eppendorf tube. • 2. 40 μl (0.2M) NaOH or 1.5 μl Endo VIII NEB (10 units/0) and 5 μl 10× Reaction Buffer NEB (10 mM Tris-HCl, 75 mM NaCl, 1 mM EDTA, pH 8 @ 25° C.) was also added into the same tube and gently mixed by resuspension and centrifugation at 13000 rpm for 5 sec. • 3. […]

DNA containing inosine [4] = experiment: One-step cleavage of oligonucleotide with Endonuclease V (gel); type: biochemical; conditions: 37° C.
Protocol: Cleavage reaction on oligonucleotides was carried out using the procedure below: • 1. A pipette (Gilson) was used to transfer 41 μl sterile distilled water (ELGA VEOLIA) into a 1.5 ml Eppendorf tube. • 2. 50 of 10× Reaction Buffer® NEB (50 mM Potassium Acetate, 20 mM Tris-acetate, 10 mM Magnesium Acetate, 1 mM DTT, pH 7.9@25° C.) was then added into the same Eppendorf tube. • 3. 1 μl each of oligonucleotides (FIG. 24d); Template (SEQ ID NO: 31) or any fluorescently tagged long oligo strand, Primer with T (SEQ ID NO: 32) and control (SEQ ID NO: 33) and helper strand (SEQ ID NO: 34), all at 5 pmols, were added into the same tube. • 4. 1 μl of Human Endonuclease V (Endo V) NEB (10 units/μl) was added into the same tube. • 5. Reaction mixture was then gently mixed by resuspension with a pipette, centrifuged at 13,000 rpm for 5 seconds and incubated at 37° C. for 1 hour. • 6. Typically after incubation time had elapsed, reaction was terminated by enzymatic heat inactivation (i.e. 65° C. for 20 minutes).
(§1) • 1. 5 μl of DNA and TBE-Urea sample buffer (Novex) was added into a sterile 1.5 ml Eppendorf tube and heated to 95° C. for 2 minutes using a heat thermoblock (Eppendorf). • 2. The DNA mixtures were then loaded into the wells of a 15% TBE-Urea gel 1.0 mm×10 well (Invitrogen) which contained preheated 1×TBE buffer Thermo Scientific (89 mM Tris, 89 mM boric acid and 2 mM EDTA). • 3. X-cell sure lock module (Novex) was fastened in place and electrophoresis performed at the following conditions; 260V, 90 Amps for 40 minutes at room temperature. • 4. Detection and visualization of DNA in the gel was carried out with Chemidoc MP (BioRad) using Cy3 LEDS. Visualization and analysis was carried out on the Image lab 2.0 platform.

Hairpin Oligonucleotide = experiment: Cleavage of hairpin oligonucleotide with Endonuclease V (gel); type: biochemical; conditions: 37° C.
Protocol: Cleavage reaction on hairpin oligonucleotides was carried out using the procedure below: • 1. A pipette (Gilson) was used to transfer 43 μl sterile distilled water (ELGA VEOLIA) into a 1.5 ml Eppendorf tube. • 2. 50 of 10× Reaction Buffer® NEB (50 mM potassium acetate, 20 mM Tris-acetate, 10 mM magnesium acetate, 1 mM DTT, pH 7.9@25° C.) was then added into the same Eppendorf tube. • 3. 111 of hairpin oligonucleotide (SEQ ID NO: 45, FIG. 28c) having an amount of 5 pmols was added into the same tube. • 4. 10 of Human Endonuclease V (Endo V) NEB (30 units/μl) was added into the same tube. • 5. […] Typically after incubation time had elapsed, the reaction was terminated by enzymatic heat inactivation (i.e. 65° C. for 20 minutes).
as §1, with “ThermoMixer” for “thermoblock”, “ChemiDoc” for “Chemidoc”

3′-O-azidomethyl-dTTP showed a primer remains unextended ([1]; after 20 minutes at 37° C. and 47° C.) of 10%, an Incorporation ([1]; in the presence of a helper strand, after 5 minutes) of 90% and an Incorporation efficiency [2] greater than 99%.

With “hAAG DNA glycosylase: Human Alkyladenine DNA Glycosylase (hAAG) NEB” the “yield of cleaved DNA (cleaved to uncleaved DNA ratio)” value (DNA containing inosine [3]; with a helper strand) was 50% and the “yield of cleaved DNA (cleaved to uncleaved DNA ratio)” value (DNA containing inosine [3]; without a helper strand) was 10%.

With 3′-O-azidomethyl-dGTP the Incorporation efficiency [2] was greater than 99%.

In the case of 3′-O-azidomethyl-dATP, the Incorporation efficiency [2] is reported as greater than 99%.

3′-O-azidomethyl-dCTP showed an Incorporation efficiency [2] greater than 90%.

B1: Endo V: Human Endonuclease V (Endo V) NEB (protein, UniProt Q8N8Q3 1-282, looked up)
Endonuclease V: MALEAAGGPPEETLSLWKREQARLKAHVVDRDTEAWQRDPAFSGLQRVGGVDVSFVKGDSVRACASLVVLSFPELEVVYEESRMVSLTAPYVSGFLAFREVPFLLELVQQLREKEPGLMPQVLLVDGNGVLHHRGFGVACHLGVLTDLPCVGVAKKLLQVDGLENNALHKEKIRLLQTRGDSFPLLGDSGTVLGMALRSHDRSTRPLYISVGHRMSLEAAVRLTCCCCRFRIPEPVRQADICSREHIRKSLGLPGPPTPRSPKAQRPVACPKGDSGESSALC
For B1, the “yield of cleaved DNA (cleaved to uncleaved DNA ratio)” value (DNA containing inosine [4]; positive control that contained both full length strands) was 80%, the DNA cleavage yield (DNA containing inosine [4]; with a helper strand) was greater than 99% and the “yield of cleaved DNA” value (DNA containing inosine [4]; without a helper strand) was greater than 99%. The “yield of digested DNA” value (Hairpin Oligonucleotide; after 5 minutes) was roughly 98%, the “yield of digested DNA” value (Hairpin Oligonucleotide; after 10 minutes) was roughly 99% and the “yield of digested DNA” value (Hairpin Oligonucleotide; after 30 minutes) was roughly 99%. The “yield of digested DNA” value (Hairpin Oligonucleotide; after 1 hr) was roughly 99%.
